From paper PMC7174758, “Synthesis and Biological Evaluation of HDAC Inhibitors With a Novel Zinc Binding Group” (Frontiers in Chemistry, 2020)

Experiments:
acetyl-histone H3 = experiment: Western blot, acetylation of histone H3 in Hela cells; type: cell-based, human; conditions: 20 and 40 μM, 48 h
Method: (§1) Afterwards, the Hela cells were collected using centrifugation, and were then lysed by the lysate, which were carried out further centrifugation at 12,000 rpm for 30 min. The protein of supernatant obtained by centrifugation was quantified using the BCA kit (Beijing Solarbio Science & Technology Co., Ltd.), and the protein extracts were mixed with the SDS-PAGE protein loading buffer (Beijing Solarbio Science & Technology Co., Ltd.), which were subject to 100°C water bath for 10 min to sufficiently denaturate. The gel was gelatinized using the SDS Gel Kit (Beijing Solarbio Science & Technology Co., Ltd.) and protein extracts were separated by protein SDS-polyacrylamide gel electrophoresis and then transferred to Immobilon-NC Membrane (Beijing Solarbio Science & Technology Co., Ltd.). After the blocking with 5% non-fat dried milk in TBS for 90 min at room temperature, the membranes were incubated overnight with specific primary antibodies (AFFINITY BIOSCIENCE) at 4°C, which were further incubated with secondary antibodies for 2 h after washing three times with TBST. The chemiluminescence analysis system was applied to label the target protein with a specific primary antibody and the target protein was detected using a specific antibody.

[1] = system: HDACs extracted from Hela cervical cancer cells; experiment: Enzyme inhibition assay, Hela nuclear extract (HDAC Inhibitor Drug Screening Kit); conditions: read-out: Hela nuclear extract IC50; mean ± SD of three experiments
acetyl-α-tubulin = experiment: Western blot, acetylation of α-tubulin in Hela cells; type: cell-based, human; conditions: 20 and 40 μM, 48 h
Method: as §1

HepG2 = experiment: MTT anti-proliferative assay, HepG2; conditions: Homo sapiens, HepG2, 48 h, read-out: IC50 HepG2
Method: (§3) The antitumor bioactivities of the tittle compounds in vitro were firstly evaluated against four different human tumor cell lines [breast lung cancer (A549), cervical cancer (Hela), liver cancer (HepG2), breast cancer (MCF-7)] via MTT assay, and a normal cell line [human lung fibroblast (WI-38)] was applied to assess the safety of the synthesized compounds. […] In this study, the tested compounds were diluted to the required concentration with culture medium, and growth inhibitory effects against the cell lines of the tittle compounds were determined by MTT colorimetric assay. […] The microplate reader was adopted to record the absorbance at 490 nm for each well of the plates.

WI-38 = experiment: MTT cytotoxicity assay, normal cell line WI-38; conditions: Homo sapiens, WI-38, 48 h, read-out: IC50 WI-38
Method: as §3

HDAC6 = molecular target: T1, HDAC6 (Homo sapiens, UniProt Q9UBN7); experiment: Fluor de Lys HDAC6 assay kit; type: biochemical
T1 construct: purchased Enzo Life Sciences BML-AK516
T1 sequence (Q9UBN7 1-1215): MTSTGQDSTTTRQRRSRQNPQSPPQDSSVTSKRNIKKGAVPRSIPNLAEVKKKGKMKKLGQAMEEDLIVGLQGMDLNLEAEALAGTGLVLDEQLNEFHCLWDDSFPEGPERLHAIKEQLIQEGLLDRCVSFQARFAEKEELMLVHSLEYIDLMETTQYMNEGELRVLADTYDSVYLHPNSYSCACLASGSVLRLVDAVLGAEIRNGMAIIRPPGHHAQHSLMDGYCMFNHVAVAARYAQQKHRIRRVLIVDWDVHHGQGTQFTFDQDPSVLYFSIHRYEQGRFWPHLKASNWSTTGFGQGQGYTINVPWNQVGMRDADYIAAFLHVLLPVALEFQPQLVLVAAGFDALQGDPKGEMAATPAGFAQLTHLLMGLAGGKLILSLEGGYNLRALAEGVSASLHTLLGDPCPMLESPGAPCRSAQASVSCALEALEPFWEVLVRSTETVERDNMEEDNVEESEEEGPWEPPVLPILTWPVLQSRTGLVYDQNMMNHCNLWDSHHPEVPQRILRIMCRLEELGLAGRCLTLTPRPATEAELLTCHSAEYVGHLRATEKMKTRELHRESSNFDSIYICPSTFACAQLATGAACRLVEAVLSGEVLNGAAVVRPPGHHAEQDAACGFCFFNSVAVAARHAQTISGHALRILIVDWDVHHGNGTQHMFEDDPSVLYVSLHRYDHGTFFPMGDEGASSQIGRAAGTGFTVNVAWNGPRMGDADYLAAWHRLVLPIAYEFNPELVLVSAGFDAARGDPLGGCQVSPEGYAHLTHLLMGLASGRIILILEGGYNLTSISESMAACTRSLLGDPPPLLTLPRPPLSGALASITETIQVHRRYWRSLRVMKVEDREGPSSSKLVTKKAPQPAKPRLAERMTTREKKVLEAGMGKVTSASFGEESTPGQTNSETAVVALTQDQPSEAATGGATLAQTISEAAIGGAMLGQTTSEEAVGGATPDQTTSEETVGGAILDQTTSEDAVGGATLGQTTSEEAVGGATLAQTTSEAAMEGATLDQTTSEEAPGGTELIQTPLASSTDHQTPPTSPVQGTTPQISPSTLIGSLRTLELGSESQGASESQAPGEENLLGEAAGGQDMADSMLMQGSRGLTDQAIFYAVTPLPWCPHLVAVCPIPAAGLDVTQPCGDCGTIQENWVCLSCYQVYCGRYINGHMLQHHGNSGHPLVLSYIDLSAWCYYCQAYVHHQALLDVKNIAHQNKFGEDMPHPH
Method: (§2) The generated fluorescence after the deacetylation of HDAC could be detected at the wavelengths of 485 nm (excitation) and 530 nm (emission) using the microplate reader (PerkinElmer, USA). The dose response of inhibition experiment was carried out in triplicate, and the IC50 data was calculated by GraphPad Prism 5.

Hela = experiment: MTT anti-proliferative assay, Hela; conditions: Homo sapiens, 48 h, read-out: IC50 Hela
Method: as §3

A549 = experiment: MTT anti-proliferative assay, A549; conditions: Homo sapiens, A549, 48 h, read-out: IC50 A549
Method: as §3

HDAC1 = molecular target: T2, HDAC1 (Homo sapiens, UniProt Q13547); experiment: Fluor de Lys HDAC1 assay kit; type: biochemical; conditions: three independent experiments, mean ± SD
T2 construct: purchased Enzo Life Sciences BML-AK511
T2 sequence (Q13547 whole entry): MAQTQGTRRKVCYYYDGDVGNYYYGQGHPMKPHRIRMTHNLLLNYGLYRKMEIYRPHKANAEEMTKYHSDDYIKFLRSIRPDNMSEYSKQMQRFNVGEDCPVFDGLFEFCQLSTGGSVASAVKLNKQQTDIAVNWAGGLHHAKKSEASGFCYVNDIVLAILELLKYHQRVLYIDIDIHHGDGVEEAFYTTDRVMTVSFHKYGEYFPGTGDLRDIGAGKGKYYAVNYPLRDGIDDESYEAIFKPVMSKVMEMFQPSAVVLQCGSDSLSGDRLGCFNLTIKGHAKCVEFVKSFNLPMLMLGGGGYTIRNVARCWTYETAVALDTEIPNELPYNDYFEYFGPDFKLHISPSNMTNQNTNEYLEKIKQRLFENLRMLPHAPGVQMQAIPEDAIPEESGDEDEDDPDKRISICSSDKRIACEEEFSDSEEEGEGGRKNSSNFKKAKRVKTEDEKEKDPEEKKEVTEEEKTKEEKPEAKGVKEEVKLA
Method: as §2

MCF-7 = experiment: MTT anti-proliferative assay, MCF-7; conditions: Homo sapiens, MCF7, 48 h, read-out: IC50 MCF-7
Method: as §3

IC50 [1]: 22.5 ± 5.2 µM
IC50 (HepG2): 28.4 ± 0.65 µM
inhibitory activity on HDAC6 relative to HDAC1 (HDAC6; HDAC6 vs HDAC1): more than ten folds
IC50 (HDAC6; three independent experiments, mean ± SD): 4.2 ± 1.27 µM
IC50 (Hela): 13.7 ± 1.31 µM
melting point: 147.6 to 148.5 °C
IC50 (A549): 26.5 ± 0.26 µM
IC50 (HDAC1): 56.5 ± 2.7 µM
IC50 (MCF-7): 40.1 ± 7.05 µM
SMILES: O=C(CCCCCNC(=O)c1ccc(-c2ccccc2)cc1)NCCO [b8, N-(6-((2-hydroxyethyl)amino)-6-oxohexyl)-[1, 1'-biphenyl]-4-carboxamide]
acetylation level of histone H3 (acetyl-histone H3): insensitive
acetylation level of α-Tubulin (acetyl-α-tubulin): increase
IC50 (WI-38): 95.9 ± 4.28 µM
